Like-named read-outs stand apart in the source and are kept apart here.
How the values were obtained:
MAP2K1 (MEK1) = biological target: T1, MAP2K1 (MEK1) (Homo sapiens, UniProt Q02750); assay: MEK Inhibition Assay-2 (Example 3): Z'-LYTE biochemical assay; conditions: Table 6; procedure of Example 3; read-out: IC50 against MEK1
T1 construct: purchased ThermoFisher
Experimental: MEK1 inhibitory activity of compounds were tested using the following procedure (protocol available at thermofisher.com/content/dam/LifeTech/migration/files/drug-discovery/pdfs.par.60256.file.dat/20130430%20ssbk%20customer%20protocol%20and%20assay%20conditions.pdf). The Z′-LYTE biochemical assay (ThermoFisher) employs a fluorescence-based, coupled-enzyme format and is based on the differential sensitivity of phosphorylated and non-phosphorylated peptides to proteolytic cleavage.
Test compounds in 100% DMSO were screened in 1% DMSO (final) in the well. For 10 point titrations, 3-fold serial dilutions are conducted from the starting concentration of 30 μM.
After the 1 hour incubation, 5 μL of a 1:1024 dilution of Development Reagent A (available from Invitrogen, catalog no. PV3295) was added.
ATP solutions were diluted to a 4× working concentration in Kinase Buffer (50 mM HEPES pH 7.5, 0.01% BRIJ-35, 10 mM MgCl2, 1 mM EGTA). ATP Km apparent was previously determined using a Z′-LYTE assay. The Development Reagent was diluted in Development Buffer (available from Invitrogen, catalog no. P3127).
Assay Protocol: 2.5 μL of 4× test compound or 100 nL of 100× Test Compound plus 2.4 μL Kinase Buffer, 5 μL of the 2× Peptide/Kinase Mixture, 2.5 μL of 4×ATP Solution were added to the plates and placed on a shake plate for 30-seconds. The kinase reaction was allowed to proceed for 60-minute at room temperature, before 5 μL of Development Reagent Solution was added, and the mixture agitated for 30-seconds on a shake plate. The mixture was incubated for 60-minute at room temperature. Fluorescence was measured using a plate reader and the data were analyzed.
This control yielded 100% cleaved peptide in the Development Reaction. The 100% Phosphorylation Control, which consisted of a synthetically phosphorylated peptide of the same sequence as the peptide substrate, was designed to allow for the calculation of percent phosphorylation. This control yielded a very low percentage of cleaved peptide in the Development Reaction. The 0% Phosphorylation and 100% Phosphorylation Controls allow for the calculation of the percent phosphorylation achieved in a specific reaction well.
The minimum emission ratio in a screen was established by the 0% Inhibition Control, which contained active kinase. This control was designed to produce a 10-50% phosphorylated peptide in the Kinase Reaction. Cascade assays may produce up to 70% phosphorylated peptide.
A known inhibitor control standard curve, 10 point titration, was run for each individual kinase on the same plate as the kinase to ensure the kinase was inhibited within an expected IC50 range previously determined.
The following controls are prepared for each concentration of Test Compound assayed. […] The expected value for a non-interfering compound should be 100%. Any value outside of 90% to 110% was flagged. […] The expected value for a non-fluorescence compound should be 0%. Any value >20% was flagged.
The data in Table A was calculated. XLfit from IDBS was used. The dose response curve was curve fit to model number 205 (sigmoidal dose-response model).

MEK1 = biological target: T2, MEK1 (Homo sapiens, UniProt Q02750); assay: MEK Inhibition Assay-1 (Example 2): 33P-ATP, P81 filter-binding kinase assay; conditions: Example 2, read-out: Assay 1: biochemical MEK IC50
T2 construct: N-terminal His-tagged recombinant human full length protein; purchased Invitrogen PV3303; host or cells: insect cells
T2 sequence (Q02750 whole entry): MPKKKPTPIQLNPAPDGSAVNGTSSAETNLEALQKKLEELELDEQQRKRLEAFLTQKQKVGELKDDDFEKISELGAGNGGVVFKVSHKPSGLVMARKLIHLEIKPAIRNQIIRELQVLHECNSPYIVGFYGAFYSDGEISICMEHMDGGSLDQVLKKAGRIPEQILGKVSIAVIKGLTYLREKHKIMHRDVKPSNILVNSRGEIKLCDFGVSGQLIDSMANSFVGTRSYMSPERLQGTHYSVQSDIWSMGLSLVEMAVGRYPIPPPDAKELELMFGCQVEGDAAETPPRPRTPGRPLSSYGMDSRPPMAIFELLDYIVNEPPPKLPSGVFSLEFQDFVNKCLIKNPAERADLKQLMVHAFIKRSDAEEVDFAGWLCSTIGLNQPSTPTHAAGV
Experimental: The following procedure can be used to measure biochemical activity. MEK1 inhibitory activity of compounds were tested using the following procedure. […] Nat Biotechnoi 2011, 29(11), 1039-45.
• Reaction buffer: 20 mM Hepes (pH 7.5), 10 mM MgCl2, 1 mM EGTA, 0.02% Brij35, 0.02 mg/mL BSA, 0.1 mM Na3VO4, 2 mM DTT, 1% DMSO • Enzyme: MEK1, Invitrogen cat #PV3303 • N-terminal His-tagged recombinant human full length protein, expressed in insect cells. Activated in vitro by RAF1. MW=49.2 kDa, GenBank Accession No. NP_002746. • Substrate: 5 μM ERK2 (K52R), • Kinase-dead mutant, (GenBank Accession No. NM_0011949), aa2-358 with N-terminal His6 tag, MW=43.63 kDa, expressed in E. coli.
The substrate was prepared in freshly prepared Reaction Buffer. The kinase was delivered into the substrate solution and gently mixed. Test compounds were delivered in 100% DMSO into the kinase reaction mixture by Acoustic technology (Echo550; nanoliter range), and incubated for 20 min at room temperature. ^33P-ATP was delivered into the reaction mixture to initiate the reaction. The reaction mixture was incubated for 2 hours at room temperature. Kinase activity was detected by P81 filter-binding method.

[1] = Table 7, compounds of formula (I)
[2] = Table 10, compounds of formula (IV)

T1 sequence (Q02750 whole entry): as above

Row | SMILES | IC50 (MAP2K1 (MEK1)) [nM] | IC50 (MEK1; [1]) [nM] | IC50 (MEK1; [2]) [nM]
1 | CC(=O)c1sc(Nc2ccc(I)cc2F)c(C(=O)NC[C@H](O)CO)c1C [Compound 4.014] | 150 to 1500 | – | –
2 | N#Cc1ccc(C(=O)NOCCO)c(Nc2ccc(I)cc2F)c1 [Compound 1.010] | ≤ 150 | ≤ 150 | –
3 | N#Cc1ccc(C(=O)N2CC(O)C2)c(Nc2ccc(I)cc2F)c1 [Compound 1.002] | > 1500 | – | –
4 | N#Cc1ccc(C(=O)NOCCO)c(Nc2ccc(I)cc2F)c1F [Compound 1.030] | ≤ 150 | ≤ 150 | –
5 | CCONC(=O)c1ccc(C#N)cc1Nc1ccc(I)cc1F [Compound 1.008] | 150 to 1500 | ≤ 150 | –
6 | CCCONC(=O)c1ccc(C#N)cc1Nc1ccc(I)cc1F [Compound 1.009] | 150 to 1500 | 150 to 1500 | –
7 | CC(=O)c1sc(Nc2ccc(I)cc2F)c(C(=O)NC[C@@H](O)CO)c1C [Compound 4.015] | 150 to 1500 | – | –
8 | N#Cc1ccc(C(=O)NOCC2CC2)c(Nc2ccc(I)cc2F)c1 [Compound 1.012] | 150 to 1500 | – | –
9 | CC(=O)c1sc(Nc2ccc(I)cc2F)c(C(=O)NOCCO)c1C [Compound 4.013] | 150 to 1500 | – | ≤ 500
10 | N#Cc1ccc(C(=O)O)c(Nc2ccc(I)cc2F)c1 [Compound 1.001] | 150 to 1500 | – | –
11 | CC(=O)c1sc(Nc2ccc(I)cc2F)c(C(=O)NCC(C)(C)N)c1C [Compound 4.020] | – | – | 1000 to 5000
12 | O=C1CCCc2c1sc(Nc1ccc(I)cc1F)c2C(=O)NOC[C@H](O)CO [Compound 4.030] | ≤ 150 | – | –
13 | O=C1CCCc2c1sc(Nc1ccc(I)cc1F)c2C(=O)NC[C@H](O)CO [Compound 4.034] | ≤ 150 | – | –
14 | CC(=O)c1sc(Nc2ccc(I)cc2F)c(C(=O)N2CC[C@@H](N)C2)c1C [Compound 4.018] | – | – | 5000 to 10000
15 | CC(=O)c1sc(Nc2ccc(I)cc2F)c(C(=O)NOCC2CC2)c1C [Compound 4.023] | – | – | ≤ 500
16 | Cc1cc(I)ccc1Nc1cc(C#N)ccc1C(=O)NOCC1CC1 [Compound 1.013] | 150 to 1500 | – | –
17 | NCCONC(=O)c1c(Nc2ccc(I)cc2F)sc2c1CCCC2=O [Compound 4.033] | ≤ 150 | – | –
18 | N#Cc1ccc(C(=O)NOCC2CC2)c(Nc2ccc(I)cc2F)c1F [Compound 1.031] | ≤ 150 | ≤ 150 | –
19 | CC(=O)c1sc(Nc2ccc(I)cc2F)c(C(=O)N[C@@H]2CCNC2)c1C [Compound 4.017] | – | – | 500 to 1000
20 | CONC(=O)c1ccc(C#N)cc1Nc1ccc(I)cc1F [Compound 1.007] | 150 to 1500 | 150 to 1500 | –
21 | N#Cc1ccc(C(=O)NO)c(Nc2ccc(I)cc2F)c1 [Compound 1.017] | ≤ 150 | – | –
22 | CC(=O)c1sc(Nc2ccc(I)cc2F)c(C(=O)N[C@@H]2CCCNC2)c1C [Compound 4.016] | – | – | 500 to 1000
23 | O=C1CCCc2c1sc(Nc1ccc(I)cc1F)c2C(=O)NOCC1CC1 [Compound 4.032] | ≤ 150 | – | ≤ 500
24 | COC(=O)CCONC(=O)c1ccc(C#N)cc1Nc1ccc(I)cc1F [Compound 1.022] | > 1500 | – | –
25 | CONC(=O)c1c(Nc2ccc(I)cc2F)sc(C(C)=O)c1C [Compound 4.021] | – | – | 500 to 1000
26 | O=C1CCCc2c1sc(Nc1ccc(I)cc1F)c2C(=O)NC[C@@H](O)CO [Compound 4.035] | ≤ 150 | – | –
27 | N#Cc1ccc(C(=O)NOCCN)c(Nc2ccc(I)cc2F)c1 [Compound 1.018] | 150 to 1500 | – | –
28 | CCONC(=O)c1c(Nc2ccc(I)cc2F)sc(C(C)=O)c1C [Compound 4.022] | – | – | ≤ 500
29 | Cc1cc(I)ccc1Nc1cc(C#N)ccc1C(=O)NOCCO [Compound 1.011] | 150 to 1500 | – | –

Results, then the molecule that gave them:

Row | IC50 (MAP2K1 (MEK1)) [nM] | IC50 (MEK1; [1]) [nM] | IC50 (MEK1; [2]) [nM] | SMILES
30 | > 1500 | – | – | O=C(O)Cn1ccc2cncc(Nc3ccc(I)cc3F)c2c1=O [Compound 5.004]
31 | 150 to 1500 | – | – | O=C1NCCc2cncc(Nc3ccc(I)cc3F)c21 [Compound 5.012]
32 | 150 to 1500 | – | – | O=C1c2c(cncc2Nc2ccc(I)cc2F)CCN1OCCO [Compound 5.010]
33 | > 1500 | – | – | COC(=O)Cn1ccc2cncc(Nc3ccc(I)cc3F)c2c1=O [Compound 5.005]
34 | ≤ 150 | – | – | O=c1c2c(Nc3ccc(I)cc3F)cncc2ccn1C[C@H](O)CO [Compound 5.002]
35 | 150 to 1500 | – | – | NCCCn1ccc2cncc(Nc3ccc(I)cc3F)c2c1=O [Compound 5.003]
36 | 150 to 1500 | – | – | O=c1c2c(Nc3ccc(I)cc3F)cncc2ccn1O [Compound 5.006]
37 | 150 to 1500 | – | – | O=c1c2c(Nc3ccc(I)cc3F)cncc2ccn1OCCO [Compound 5.007]
38 | ≤ 150 | – | – | O=c1c2c(Nc3ccc(I)cc3F)cncc2ccn1C[C@@H](O)CO [Compound 5.001]
39 | 150 to 1500 | – | – | CCON1CCc2cncc(Nc3ccc(I)cc3F)c2C1=O [Compound 5.011, 2-ethoxy-8-((2-fluoro-4-iodophenyl)amino)-3,4-dihydro-2,6-naphthyridin-1(2H)-one]

Source: patent US20230013227A1, “ARYL-ANILINE AND HETEROARYL-ANILINE COMPOUNDS FOR TREATMENT OF BIRTHMARKS” (NFlection Therapeutics, Inc., priority 2018, published 2023)
